Where “and” joins values, the source holds several entries; their conditions need not be identical. Equal values may be shown once. Toxic doses and inconclusive results are not listed. How the source made its calls: active means survival T/C of 150% or more; inactive means T/C below 125% in these data.
Tested on: BDF1 mice, B16 melanoma ip, median survival T/C
Assay: NCI In Vivo Anticancer Drug Screen. Data for tumor model B16 Melanoma (intraperitoneal) in B6D2F1 (BDF1) mice
Settings: endpoint: median survival time, higher = longer survival
Method in brief: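 Vehicle-treated animals serve as the reference (C); treated animals (T) are scored for survival or tumor size after tumor transplantation.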

[1] = dose: 25.0 mg/kg/injection, schedule: Q01DX009 (ip), vehicle: saline with Tween-80
[2] = dose: 50.0 mg/kg/injection, schedule: Q01DX009 (ip), vehicle: saline with Tween-80
[3] = dose: 100.0 mg/kg/injection, schedule: Q01DX009 (ip), vehicle: saline with Tween-80
[4] = dose: 100.0 mg/kg/injection, schedule: Q01DX009 (ip), vehicle: Klucel (hydroxypropylcellulose) (HPC)
[5] = dose: 12.5 mg/kg/injection, schedule: Q01DX009 (ip), vehicle: saline with Tween-80

Measured: T/C

CC(CN1CC(=O)NC(=O)C1)N1CC(=O)NC(=O)C1 (centres undefined)
inactive: dose: 3.75 mg/kg/injection, schedule: Q01DX009 (ip), vehicle: alkali diluted with saline 99 % of control | dose: 3.75 mg/kg/injection, schedule: Q01DX009 (ip), vehicle: saline sonified 97 % of control | dose: 3.75 mg/kg/injection, schedule: Q01DX009 (ip), vehicle: saline 102 % of control | dose: 3.75 mg/kg/injection, schedule: Q04DX004 (ip), vehicle: saline 100 % of control | dose: 4.0 mg/kg/injection, schedule: Q01DX009 (ip), vehicle: saline with Tween-80 114 % of control | dose: 4.0 mg/kg/injection, schedule: Q01DX009 (ip), vehicle: saline 115 % of control | dose: 7.5 mg/kg/injection, schedule: Q01DX009 (ip), vehicle: alkali diluted with saline 105 % of control | dose: 7.5 mg/kg/injection, schedule: Q01DX009 (ip), vehicle: saline sonified 100 % of control | dose: 7.5 mg/kg/injection, schedule: Q01DX009 (ip), vehicle: saline 104 % of control | dose: 7.5 mg/kg/injection, schedule: Q04DX004 (ip), vehicle: saline 90 % of control | dose: 8.0 mg/kg/injection, schedule: Q01DX009 (ip), vehicle: saline with Tween-80 105 % of control and 112 % of control and 118 % of control | dose: 8.0 mg/kg/injection, schedule: Q01DX009 (ip), vehicle: saline 123 % of control | dose: 15.0 mg/kg/injection, schedule: Q01DX009 (ip), vehicle: alkali diluted with saline 110 % of control | dose: 15.0 mg/kg/injection, schedule: Q01DX009 (ip), vehicle: saline sonified 109 % of control | dose: 15.0 mg/kg/injection, schedule: Q01DX009 (ip), vehicle: saline with Tween-80 110 % of control | dose: 15.0 mg/kg/injection, schedule: Q01DX009 (ip), vehicle: saline 114 % of control | dose: 15.0 mg/kg/injection, schedule: Q04DX004 (ip), vehicle: saline 88 % of control | dose: 16.0 mg/kg/injection, schedule: Q01DX009 (ip), vehicle: saline with Tween-80 121 % of control and 123 % of control | dose: 25.0 mg/kg/injection, schedule: Q04DX003 (ip), vehicle: Klucel (hydroxypropylcellulose) (HPC) 94 % of control and 97 % of control | dose: 30.0 mg/kg/injection, schedule: Q01DX009 (ip), vehicle: alkali diluted with saline 119 % of control | dose: 30.0 mg/kg/injection, schedule: Q01DX009 (ip), vehicle: saline sonified 119 % of control | dose: 30.0 mg/kg/injection, schedule: Q01DX009 (ip), vehicle: saline with Tween-80 113 % of control | dose: 30.0 mg/kg/injection, schedule: Q01DX009 (ip), vehicle: saline 121 % of control | dose: 30.0 mg/kg/injection, schedule: Q01DX009 (oral), vehicle: saline 95 % of control | dose: 30.0 mg/kg/injection, schedule: Q04DX004 (ip), vehicle: saline 90 % of control | dose: 32.0 mg/kg/injection, schedule: Q01DX009 (ip), vehicle: Klucel (hydroxypropylcellulose) (HPC) 115 % of control | dose: 32.0 mg/kg/injection, schedule: Q01DX009 (ip), vehicle: saline with Tween-80 122 % of control | dose: 32.0 mg/kg/injection, schedule: Q04DX003 (ip), vehicle: saline with Tween-80 109 % of control and 110 % of control | dose: 50.0 mg/kg/injection, schedule: Q04DX003 (ip), vehicle: Klucel (hydroxypropylcellulose) (HPC) 108 % of control and 110 % of control | dose: 60.0 mg/kg/injection, schedule: Q01DX009 (ip), vehicle: saline with Tween-80 118 % of control | dose: 60.0 mg/kg/injection, schedule: Q04DX004 (ip), vehicle: saline 111 % of control | dose: 64.0 mg/kg/injection, schedule: Q01DX009 (ip), vehicle: Klucel (hydroxypropylcellulose) (HPC) 120 % of control | dose: 64.0 mg/kg/injection, schedule: Q04DX003 (ip), vehicle: saline with Tween-80 108 % of control and 115 % of control | dose: 64.0 mg/kg/injection, schedule: Q04DX003 (ip), vehicle: saline 115 % of control | dose: 100.0 mg/kg/injection, schedule: Q04DX003 (ip), vehicle: Klucel (hydroxypropylcellulose) (HPC) 108 % of control and 112 % of control | dose: 120.0 mg/kg/injection, schedule: Q01DX009 (ip), vehicle: saline with Tween-80 116 % of control | dose: 128.0 mg/kg/injection, schedule: Q01DX009 (ip), vehicle: Klucel (hydroxypropylcellulose) (HPC) 120 % of control | dose: 128.0 mg/kg/injection, schedule: Q04DX003 (ip), vehicle: saline with Tween-80 121 % of control | dose: 128.0 mg/kg/injection, schedule: Q04DX003 (ip), vehicle: saline 121 % of control | dose: 200.0 mg/kg/injection, schedule: Q04DX003 (ip), vehicle: Klucel (hydroxypropylcellulose) (HPC) 112 % of control | dose: 400.0 mg/kg/injection, schedule: Q04DX003 (ip), vehicle: Klucel (hydroxypropylcellulose) (HPC) 108 % of control | dose: 800.0 mg/kg/injection, schedule: Q04DX003 (ip), vehicle: Klucel (hydroxypropylcellulose) (HPC) 112 % of control

O=c1[nH]c2cc(Cl)ccc2c(CCl)c1Cl
inactive: [1] 88 % of control and 95 % of control | [2] 88 % of control and 95 % of control | [3] 93 % of control and 100 % of control

O=C1c2ccccc2S(=O)c2ccccc21
inactive: [4] 97 % of control | dose: 200.0 mg/kg/injection, schedule: Q01DX009 (ip), vehicle: Klucel (hydroxypropylcellulose) (HPC) 93 % of control

O=S1(=O)N2CN3CN(C2)CN1C3
inactive: dose: 50.0 mg/kg/injection, schedule: Q01DX009 (ip), vehicle: Klucel (hydroxypropylcellulose) (HPC) 103 % of control | [4] 86 % of control

Nc1ncnc(N)c1N=O
inactive: dose: 50.0 mg/kg/injection, schedule: Q01DX009 (ip), vehicle: saline 118 % of control | dose: 100.0 mg/kg/injection, schedule: Q01DX009 (ip), vehicle: saline 115 % of control

COC1=CC(=O)N(C(=O)C2CSC(C(CO)NC(=O)c3csc(/C=N/O)n3)=N2)C1 (centres undefined)
inactive: [4] 97 % of control | dose: 400.0 mg/kg/injection, schedule: Q01DX009 (ip), vehicle: Klucel (hydroxypropylcellulose) (HPC) 106 % of control

Cc1c2ccnc(C(N)=O)c2c(C)c2c1[nH]c1ccccc12
inactive: dose: 100.0 mg/kg/injection, schedule: Q04DX003 (ip), vehicle: distilled water + Tween-80 100 % of control | dose: 200.0 mg/kg/injection, schedule: Q04DX003 (ip), vehicle: distilled water + Tween-80 114 % of control

Cc1nc2[nH]c(=O)[nH]c(=O)c2[nH]1
inactive: [5] 111 % of control | dose: 12.5 mg/kg/injection, schedule: Q04DX003 (ip), vehicle: saline with Tween-80 105 % of control | [1] 100 % of control | dose: 25.0 mg/kg/injection, schedule: Q04DX003 (ip), vehicle: saline with Tween-80 108 % of control | [2] 102 % of control | dose: 50.0 mg/kg/injection, schedule: Q04DX003 (ip), vehicle: saline with Tween-80 105 % of control

C[C@@H]1C[C@@]2(O[C@@H]2C)C(=O)O[C@@H]2CCN3CC=C(COC(=O)[C@]1(C)O)[C@H]23
inactive: dose: 10.0 mg/kg/injection, schedule: Q01DX009 (ip), vehicle: saline 102 % of control | dose: 20.0 mg/kg/injection, schedule: Q01DX009 (ip), vehicle: saline 102 % of control | dose: 40.0 mg/kg/injection, schedule: Q01DX009 (ip), vehicle: saline 104 % of control

CC(CCl)C(C#N)(c1ccccc1)c1ccccc1 (centres undefined)
inactive: [2] 93 % of control | [3] 90 % of control | dose: 200.0 mg/kg/injection, schedule: Q01DX009 (ip), vehicle: saline with Tween-80 102 % of control

S=C(N=Nc1ccccc1)NNc1ccccc1
inactive: dose: 18.8 mg/kg/injection, schedule: Q04DX003 (ip), vehicle: saline with Tween-80 102 % of control | dose: 18.9 mg/kg/injection, schedule: Q01DX009 (ip), vehicle: saline with Tween-80 88 % of control | dose: 37.5 mg/kg/injection, schedule: Q01DX009 (ip), vehicle: saline with Tween-80 93 % of control | dose: 37.5 mg/kg/injection, schedule: Q04DX003 (ip), vehicle: saline with Tween-80 92 % of control | dose: 75.0 mg/kg/injection, schedule: Q04DX003 (ip), vehicle: saline with Tween-80 92 % of control | dose: 150.0 mg/kg/injection, schedule: Q04DX003 (ip), vehicle: saline with Tween-80 97 % of control

CC/C(C)=C1\OC(=O)C(C)C(O)C(Cc2cccnc2)NC(=O)C(NC(=O)c2ncccc2O)C(C)OC1=O (centres undefined)
inactive: dose: 0.75 mg/kg/injection, schedule: Q01DX009 (ip), vehicle: Klucel (hydroxypropylcellulose) (HPC) 118 % of control | dose: 1.5 mg/kg/injection, schedule: Q01DX009 (ip), vehicle: Klucel (hydroxypropylcellulose) (HPC) 98 % of control | dose: 3.0 mg/kg/injection, schedule: Q01DX009 (ip), vehicle: Klucel (hydroxypropylcellulose) (HPC) 99 % of control | dose: 6.25 mg/kg/injection, schedule: Q01DX009 (ip), vehicle: saline with Tween-80 87 % of control | [5] 97 % of control | [1] 96 % of control

Source: PubChem BioAssay AID192 (DTP/NCI, 2004)
